Reference: patent US11919902B2, “Aryl-bipyridine amine derivatives as phosphatidylinositol phosphate kinase inhibitors” (HiberCell, Inc., priority 2017, dated 2024)
pIC50: −log10 of the molar value.

Experiments:
GST tagged PIP4KtypeIIB = target: T1, GST tagged PIP4KtypeIIB (Homo sapiens, UniProt P78356); assay: Trans-FI P kinase assay PIP4K2B (PIP4KtypeIIB inhibition assay); type: biochemical; settings: Table 4; compounds listed under IC50 range headings; 100 uM GTP, 5 nM PIP4KIIB; read-out: Trans-FI P kinase assays: PIP4K2B IC50
T1 construct: made in house; host or cells: E. coli
T1 sequence (P78356 1-416): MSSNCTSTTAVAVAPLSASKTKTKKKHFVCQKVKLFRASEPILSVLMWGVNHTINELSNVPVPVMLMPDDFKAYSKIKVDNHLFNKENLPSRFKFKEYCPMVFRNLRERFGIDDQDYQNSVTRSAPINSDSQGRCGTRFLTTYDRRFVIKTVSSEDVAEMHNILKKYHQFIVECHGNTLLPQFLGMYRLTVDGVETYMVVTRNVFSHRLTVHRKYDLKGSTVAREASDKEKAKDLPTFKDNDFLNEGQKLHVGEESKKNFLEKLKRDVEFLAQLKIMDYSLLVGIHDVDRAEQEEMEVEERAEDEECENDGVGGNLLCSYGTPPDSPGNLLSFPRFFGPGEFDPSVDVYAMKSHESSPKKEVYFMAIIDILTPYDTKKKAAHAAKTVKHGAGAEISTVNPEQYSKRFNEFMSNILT
Text: GST tagged PIP4KtypeIIA and B enzymes were overexpressed in E. Coli and purified to >80% homogeneity. Phosphatidyl inositol-5-phosphate (PI5P, Cat. #850152, Avanti Polar Lipids Inc.) was used as the lipid substrate and phosphatidyl ethanolamine (DOPE 18:1, Cat. #850725, Avanti Polar Lipids Inc.) was used as the carrier lipid for assays. Ultrapure ATP and GTP was purchased from Bellbrooke Labs. ADP Glo reagents were obtained from Promega. Transcreener FI reagent was obtained from Bellbrooke labs.
1. HEPES buffer mix: 200 mM HEPES pH 7.4, 50 mM MgCl2, 0.05% v/v triton×100
2. HNE buffer: 20 mM HEPES, pH 7.4, 100 mM NaCl, 0.5 mM EGTA
3. H:E buffer: 30 mM HEPES, pH 7.4, 1 mM EGTA
GST-tagged PIP4KtypeIIB (3.4 uL, 2.77 mg/mL) was diluted to 5 mL using HNE buffer to yield 5× enzyme stock (25 nM)
Lipid Preparation: In a 10 mL pyrex glass vial, lug of PI5P and lug of DOPE were suspended in 2.5 mL of HEPES buffer mix and 2.5 mL of H:E buffer. The contents were mixed and sonicated for 3 min to yield a translucent lipid stock.
Compound Preparation: Compounds were stored as 5 mM stocks in neat DMSO as room temperature in glass vials. 5 mM stocks were diluted to 2 mM and then serially diluted (3×) in neat DMSO in 96 well polypropylene plates. From the serially diluted stocks, 3 uL was delivered into 250 uL of 25% DMSO (in water) to generate 5× compound stocks. Typically, the highest compound conc. was 24 uM.
The assay volume was kept at 25 uL. To each well of the reaction plate, 10 uL of lipid stock (1:1 ratio PI5P:DOPE) was delivered. This was followed by the addition of 5 uL of compound in 25% DMSO. Then, to each well, 5 uL of 25 nM (5×) typeIIB enzyme was delivered. The contents were mixed well and incubated for 1 h at 27 C. After 1 h, reaction was initiated by adding 5 uL of 500 uM GTP and the contents were mixed well with a multi-channel pipetteman. The final concentration of the reagents are as follows: 50 mM HEPES, pH 7.3, 10 mM MgCl2, 20 mM NaCl, 0.01% v/v triton-X100, 5% DMSO, 100 uM GTP, 80 uM (2 ug) PI5P, 2 ug DOPE, and 5 nM PIP4KIIB Typically, the highest conc. of compounds was 4.8 uM and the lowest conc. was 0.
After 2 h, the reaction was quenched by adding 25 uL of transcreener FI reagent. The contents were incubated at RT for 1 h and the Fluorescence (Ex: 584 Em: 623) was read using Molecular Devices Paradigm plate reader. […] The blanks were averaged and subtracted from all other wells. Using a calibration curve, RFU was converted to uM GDP (product). IC50 was calculated by plotting the residual activity (expressed as % No inhibitor control) vs. log [Inh. conc.] Table 2 represents PI5P4K activity of compounds (Example No.) of the invention arranged in accordance with the inhibition of PIP4K2 A kinase assay.

[1] = target: T2, PIP4K2A (full length protein, SignalChem) (Homo sapiens, UniProt P48426); assay: Kinase Assay PIP4K2 A (Sprint); ADP-Glo biochemical assay; settings: Table 2; compounds listed under IC50 range headings
T2 construct: 4 nM PIP4K2A (full length protein, SignalChem); purchased SignalChem
T2 sequence (P48426 1-406): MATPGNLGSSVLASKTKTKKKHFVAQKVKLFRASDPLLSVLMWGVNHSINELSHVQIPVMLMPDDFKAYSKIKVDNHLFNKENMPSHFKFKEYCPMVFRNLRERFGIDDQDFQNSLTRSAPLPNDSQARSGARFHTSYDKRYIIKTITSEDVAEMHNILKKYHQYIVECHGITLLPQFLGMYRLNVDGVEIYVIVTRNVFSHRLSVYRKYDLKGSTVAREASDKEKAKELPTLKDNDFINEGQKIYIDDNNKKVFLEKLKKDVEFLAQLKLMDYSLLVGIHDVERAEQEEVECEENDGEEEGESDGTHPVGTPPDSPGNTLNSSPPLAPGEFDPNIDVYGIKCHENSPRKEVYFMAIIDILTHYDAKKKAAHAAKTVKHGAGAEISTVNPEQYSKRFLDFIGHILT
Summary of the method: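 ADP-Glo luminescence detected ADP after a 1 h RT reaction started with 60 μM ATP solution. Before that, full-length PIP4K2A (4 nM in mix) with 100 μM PI(5)P diC8 was pre-incubated 15 min with compounds in MOPS buffer pH 7.2, 25 mM MgCl2, 0.005% Tween 20. IC50 derived from % inhibition relative to DMSO over 10 three-fold concentrations.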

## O=C(NCc1nc2ccccc2[nH]1)c1cc2c(-c3cncc(-c4ccc(N5CCCC5=O)cc4)c3)ccnc2[nH]1 [Example 322, N-((1H-benzo[d]imidazol-2-yl)methyl)-4-(5-(4-(2-oxopyrrolidin-1-yl)phenyl)pyridin-3-yl)-1H-pyrrolo[2,3-b]pyridine-2-carboxamide]
GST tagged PIP4KtypeIIB
  pIC50: 7.00 to 8.00
[1]
  pIC50: 5.60 to 6.00

## Cc1c[nH]c2nccc(-c3cncc(-c4ccc(N5CCCC5=O)cc4)c3)c12 [Example 323, 1-(4-(5-(3-methyl-1H-pyrrolo[2,3-b]pyridin-4-yl)pyridin-3-yl)phenyl)pyrrolidin-2-one]
GST tagged PIP4KtypeIIB
  pIC50: 6.00 to 7.00
[1]
  pIC50: 5.60 to 6.00

## CCN(C)C(=O)c1ccc(-c2cncc(-c3ccnc4c3cc3n4CCN(C)C3=O)c2)cc1 [Example 324, N-ethyl-N-methyl-4-(5-(7-methyl-6-oxo-6,7,8,9-tetrahydropyrido[3′,2′:4,5]pyrrolo[1,2-a]pyrazin-4-yl)pyridin-3-yl)benzamide]
GST tagged PIP4KtypeIIB
  pIC50: 7.00 to 8.00
[1]
  pIC50: 6.00 to 7.00

## Cc1ccc2c(c1)N(C(=O)c1cc3c(-c4cncc(-c5ccc(N6CCCC6=O)cc5)c4)ccnc3[nH]1)CCO2 [Example 325, 1-(4-(5-(2-(6-methyl-3,4-dihydro-2H-benzo[b][1,4]oxazine-4-carbonyl)-1H-pyrrolo[2,3-b]pyridin-4-yl)pyridin-3-yl)phenyl)pyrrolidin-2-one]
GST tagged PIP4KtypeIIB
  pIC50: 6.00 to 7.00
[1]
  pIC50: 7.00 to 8.30

## CN1CCn2c(cc3c(-c4cncc(-c5ccc(N6CC(C)(C)CCC6=O)cc5)c4)ccnc32)C1=O [Example 326, 4-(5-(4-(5,5-dimethyl-2-oxopiperidin-1-yl)phenyl)pyridin-3-yl)-7-methyl-8,9-dihydropyrido[3′,2′:4,5]pyrrolo[1,2-a]pyrazin-6(7H)-one]
GST tagged PIP4KtypeIIB
  pIC50: 6.00 to 7.00
[1]
  pIC50: 5.60 to 6.00

## CN1CCn2c(cc3c(-c4cncc(-c5ccc(C(=O)N6CCOCC6)cc5)c4)ccnc32)C1=O [Example 327, 7-methyl-4-(5-(4-(morpholine-4-carbonyl)phenyl)pyridin-3-yl)-8,9-dihydropyrido[3′,2′:4,5]pyrrolo[1,2-a]pyrazin-6(7H)-one]
GST tagged PIP4KtypeIIB
  pIC50: 6.00 to 7.00
[1]
  pIC50: 5.30 to 5.60

## O=C(Nc1cccnc1)c1cc2c(-c3cncc(-c4ccc(N5CCCC5=O)cc4)c3)ccnc2[nH]1 [Example 328, 4-(5-(4-(2-oxopyrrolidin-1-yl)phenyl)pyridin-3-yl)-N-(pyridin-3-yl)-1H-pyrrolo[2,3-b]pyridine-2-carboxamide]
GST tagged PIP4KtypeIIB
  pIC50: 7.00 to 8.00
[1]
  pIC50: 5.30 to 5.60

## O=C(Nc1ccccc1)c1cc2c(-c3cncc(-c4ccc(N5CCCC5=O)cc4)c3)ccnc2[nH]1 [Example 329, 4-(5-(4-(2-oxopyrrolidin-1-yl)phenyl)pyridin-3-yl)-N-phenyl-1H-pyrrolo[2,3-b]pyridine-2-carboxamide]
GST tagged PIP4KtypeIIB
  pIC50: 7.00 to 8.00
[1]
  pIC50: 5.30 to 5.60

## O=C(NCc1ncco1)c1cc2c(-c3cncc(-c4ccc(N5CCCC5=O)cc4)c3)ccnc2[nH]1 [Example 330, N-(oxazol-2-ylmethyl)-4-(5-(4-(2-oxopyrrolidin-1-yl)phenyl)pyridin-3-yl)-1H-pyrrolo[2,3-b]pyridine-2-carboxamide]
GST tagged PIP4KtypeIIB
  pIC50: 7.00 to 8.00
[1]
  pIC50: 6.00 to 7.00

## Cc1cc(N2CCn3c(cc4c(-c5cncc(-c6ccc(N7CCCC7=O)cc6)c5)ccnc43)C2=O)nn1C [Example 331, 7-(1,5-dimethyl-1H-pyrazol-3-yl)-4-(5-(4-(2-oxopyrrolidin-1-yl)phenyl)pyridin-3-yl)-8,9-dihydropyrido[3′,2′:4,5]pyrrolo[1,2-a]pyrazin-6(7H)-one]
GST tagged PIP4KtypeIIB
  pIC50: 7.00 to 8.00
[1]
  pIC50: 6.00 to 7.00

## O=C(c1cc2c(-c3cncc(-c4ccc(N5CCCC5=O)cc4)c3)ccnc2[nH]1)N1CCCC2(CCCO2)C1 (stereo not drawn) [Example 332, 1-(4-(5-(2-(1-oxa-7-azaspiro[4.5]decane-7-carbonyl)-1H-pyrrolo[2,3-b]pyridin-4-yl)pyridin-3-yl)phenyl)pyrrolidin-2-one]
GST tagged PIP4KtypeIIB
  pIC50: 6.00 to 7.00
[1]
  pIC50: 6.00 to 7.00

## O=C1CCCN1c1ccc(-c2cncc(-c3cc(C4CC4)nc4nncn34)c2)cc1 [Example 333, 1-(4-(5-(7-cyclopropyl-[1,2,4]triazolo[4,3-a]pyrimidin-5-yl)pyridin-3-yl)phenyl)pyrrolidin-2-one]
GST tagged PIP4KtypeIIB
  pIC50: 6.00 to 7.00
[1]
  pIC50: 6.00 to 7.00
